Patent US9169254B2, “Spiroimidazolone derivative” (Chugai Seiyaku Kabushiki Kaisha, priority 2009, dated 2015)

Molecular target: T1, human PTH1 receptor (Homo sapiens, UniProt Q03431)
T1 sequence (Q03431 27-593): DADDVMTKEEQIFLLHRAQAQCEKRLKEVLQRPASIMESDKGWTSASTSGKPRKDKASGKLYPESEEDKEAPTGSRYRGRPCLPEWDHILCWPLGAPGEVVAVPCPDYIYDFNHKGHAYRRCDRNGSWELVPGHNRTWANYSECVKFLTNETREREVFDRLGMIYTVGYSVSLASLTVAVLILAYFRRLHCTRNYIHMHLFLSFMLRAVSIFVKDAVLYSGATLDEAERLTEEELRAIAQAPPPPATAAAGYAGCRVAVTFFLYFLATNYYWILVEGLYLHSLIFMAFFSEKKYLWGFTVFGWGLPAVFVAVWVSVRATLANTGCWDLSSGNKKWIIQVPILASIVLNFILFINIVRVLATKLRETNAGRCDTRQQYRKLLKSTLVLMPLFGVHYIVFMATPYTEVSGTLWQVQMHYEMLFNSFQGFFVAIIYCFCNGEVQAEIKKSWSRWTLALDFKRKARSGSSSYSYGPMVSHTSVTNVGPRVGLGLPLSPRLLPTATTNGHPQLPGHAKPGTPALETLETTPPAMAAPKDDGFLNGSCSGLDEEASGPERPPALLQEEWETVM
Assay: In vitro cAMP signal activity in HKRK-B7 cells (LLC-PK1 cells overexpressing the human PTH1 receptor)
Type: cell-based
Details: HKRK-B7 cells; compound at 1×10^−3 M; cAMP produced as percentage of that produced by hPTH(1-34) at 100 nM

SMILES | cAMP production activity (%)
[2H]C([2H])([2H])C([2H])([2H])C([2H])([2H])C([2H])([2H])Oc1cc(C2=NC3(CCN(S(=O)(=O)/C=C/c4c(C)cc(C(=O)N5CCC(C)(O)CC5)cc4C)CC3)C(=O)N2)ccc1Cl [Compound 1231, 2-(3-[1,1,2,2,3,3,4,4,4-^2H9]butoxy-4-chloro-phenyl)-8-{(E)-2-[4-(4-hydroxy-4-methyl-piperidine-1-carbonyl)-2,6-dimethyl-phenyl]-ethenesulfonyl}-1,3,8-triaza-spiro[4.5]dec-1-en-4-one] | 88%
Cc1cc(C(=O)N2CCC(C)(O)CC2)cc(C)c1/C=C/S(=O)(=O)N1CCC2(CC1)N=C(c1cc(OCC(F)(F)C(F)F)cc(C(F)(F)F)c1)NC2=O [Compound 1226, 8-{(E)-2-[4-(4-hydroxy-4-methyl-piperidine-1-carbonyl)-2,6-dimethyl-phenyl]-ethenesulfonyl}-2-[3-(2,2,3,3-tetrafluoro-propoxy)-5-trifluoromethyl-phenyl]-1,3,8-triaza-spiro[4.5]dec-1-en-4-one] | 51%
Nc1ccc(CCS(=O)(=O)N2CCC3(CC2)N=C(C2CCCCC2)NC3=O)c(C(F)(F)F)c1 [Compound 314, 8-[2-(4-amino-2-trifluoromethyl-phenyl)-ethanesulfonyl]-2-cyclohexyl-1,3,8-triaza-spiro[4.5]dec-1-en-4-one] | 68%
CC(=O)Nc1ccc(CCS(=O)(=O)N2CCC3(CC2)N=C(c2cccc(C(F)(F)F)c2)NC3=O)c(C)c1 [Compound 298, N-(3-methyl-4-{2-[4-oxo-2-(3-trifluoromethyl-phenyl)-1,3,8-triaza-spiro[4.5]dec-1-ene-8-sulfonyl]-ethyl}-phenyl)-acetamide] | 63%
CCCCCC[C@H]1CCCC[C@@H]1C1=NC2(CCN(S(=O)(=O)CCc3c(C)cc(N(C)C(N)=O)cc3C)CC2)C(=O)N1 [Compound 1057, 1-(4-{2-[2-((1S,2S)-2-hexyl-cyclohexyl)-4-oxo-1,3,8-triaza-spiro[4.5]dec-1-ene-8-sulfonyl]-ethyl}-3,5-dimethyl-phenyl)-1-methyl-urea] | 100%
Cc1cc(C(=O)N(C)C)ccc1-c1ccc(S(=O)(=O)N2CCC3(CC2)N=C(c2cccc(OC(F)(F)F)c2)NC3=O)cc1 [Compound 336, 2-methyl-4′-[4-oxo-2-(3-trifluoromethoxy-phenyl)-1,3,8-triaza-spiro[4.5]dec-1-ene-8-sulfonyl]-biphenyl-4-carboxylic acid dimethylamide] | 28%
Cc1cc(C(=O)N2CCC(O)(CO)CC2)cc(C)c1/C=C/S(=O)(=O)N1CCC2(CC1)N=C(c1cccc(OC(F)(F)F)c1)NC2=O [Compound 403, 8-{(E)-2-[4-(4-hydroxy-4-hydroxymethyl-piperidine-1-carbonyl)-2,6-dimethyl-phenyl]-ethenesulfonyl}-2-(3-trifluoromethoxy-phenyl)-1,3,8-triaza-spiro[4.5]dec-1-en-4-one] | 51%
Cc1cc(C(=O)N2CC[C@@H](O)C2)cc(C)c1/C=C/S(=O)(=O)N1CCC2(CC1)N=C(c1cccc(OC(F)(F)F)c1)NC2=O [Compound 401, 8-{(E)-2-[4-((R)-3-hydroxy-pyrrolidine-1-carbonyl)-2,6-dimethyl-phenyl]-ethenesulfonyl}-2-(3-trifluoromethoxy-phenyl)-1,3,8-triaza-spiro[4.5]dec-1-en-4-one] | 83%
Cc1cc(C(=O)N(C)C)ccc1CCS(=O)(=O)N1CCC2(CC1)N=C(c1cccc(Cl)c1)NC2=O [Compound 81, 4-{2-[2-(3-chloro-phenyl)-4-oxo-1,3,8-triaza-spiro[4.5]dec-1-ene-8-sulfonyl]-ethyl}-3,N,N-trimethyl-benzamide] | 57%
Cc1nc(C)c(C2=NC3(CCN(S(=O)(=O)CCc4ccc(C(=O)N(C)C)cc4C)CC3)C(=O)N2)s1 [Compound 102, 4-{2-[2-(2,4-dimethyl-thiazol-5-yl)-4-oxo-1,3,8-triaza-spiro[4.5]dec-1-ene-8-sulfonyl]-ethyl}-3,N,N-trimethyl-benzamide] | 23%
O=C(c1ccc(Cl)cc1)N1CCCC(C2=NC3(CCN(S(=O)(=O)c4cccc(Cl)c4)CC3)C(=O)N2)C1 (centres unmarked) [Compound 425, 8-(3-Chloro-benzenesulfonyl)-2-[1-(4-chloro-benzoyl)-piperidin-3-yl]-1,3,8-triaza-spiro[4.5]dec-1-en-4-one] | 17%
Cc1cc(C(=O)N(C)C)ccc1CCS(=O)(=O)N1CCC2(CC1)N=C(c1cccc(-c3c(C)noc3C)c1)NC2=O [Compound 171, 4-(2-{2-[3-(3,5-Dimethyl-isoxazol-4-yl)-phenyl]-4-oxo-1,3,8-triaza-spiro[4.5]dec-1-ene-8-sulfonyl}-ethyl)-3,N,N-trimethyl-benzamide] | 36%
Cc1cc(C(=O)N(C)C)ccc1-c1cccc(S(=O)(=O)N2CCC3(CC2)N=C(c2cccc(OC(F)(F)F)c2)NC3=O)c1 [Compound 335, 2-methyl-3′-[4-oxo-2-(3-trifluoromethoxy-phenyl)-1,3,8-triaza-spiro[4.5]dec-1-ene-8-sulfonyl]-biphenyl-4-carboxylic acid dimethylamide] | 28%
Cc1cc(C(=O)N2CCC(C)(O)CC2)cc(C)c1/C=C/S(=O)(=O)N1CCC2(CC1)N=C(c1ccc(OC(F)(F)C(F)F)cc1)NC2=O [Compound 1213, 8-{(E)-2-[4-(4-hydroxy-4-methyl-piperidine-1-carbonyl)-2,6-dimethyl-phenyl]-ethenesulfonyl}-2-[4-(1,1,2,2-tetrafluoro-ethoxy)-phenyl]-1,3,8-triaza-spiro[4.5]dec-1-en-4-one] | 80%
O=C(CNc1ccc(/C=C/S(=O)(=O)N2CCC3(CC2)N=C(C2CCCCC2)NC3=O)c(C(F)(F)F)c1)NCCO [Compound 494, 2-{4-[(E)-2-(2-cyclohexyl-4-oxo-1,3,8-triaza-spiro[4.5]dec-1-ene-8-sulfonyl)-vinyl]-3-trifluoromethyl-phenylamino}-N-(2-hydroxy-ethyl)-acetamide] | 66%
Cc1cc(N2OCCC2=O)ccc1/C=C/S(=O)(=O)N1CCC2(CC1)N=C(C1CCC(C)CC1)NC2=O (centres unmarked) [Compound 580, 2-(4-methyl-cyclohexyl)-8-{(E)-2-[2-methyl-4-(3-oxo-isoxazolidin-2-yl)-phenyl]-ethenesulfonyl}-1,3,8-triaza-spiro[4.5]dec-1-en-4-one] | 25%
O=C1NC(C2CCCCC2)=NC12CCN(S(=O)(=O)/C=C/c1cccc3c1ccn3CCC(O)CO)CC2 (centres unmarked) [Compound 480, 2-cyclohexyl-8-{(E)-2-[1-(3,4-dihydroxy-butyl)-1H-indol-4-yl]-ethenesulfonyl}-1,3,8-triaza-spiro[4.5]dec-1-en-4-one] | 44%
CONC(=O)Cc1ccc(CCS(=O)(=O)N2CCC3(CC2)N=C(C2CCC(C)CC2)NC3=O)c(C)c1 (centres unmarked) [Compound 1388, N-methoxy-2-(3-methyl-4-{2-[2-(4-methyl-cyclohexyl)-4-oxo-1,3,8-triaza-spiro[4.5]dec-1-ene-8-sulfonyl]-ethyl}-phenyl)-acetamide] | 59%
CC(C)COC(=O)N1CCCC(C2=NC3(CCN(S(=O)(=O)c4cccc(Cl)c4)CC3)C(=O)N2)C1 (centres unmarked) [Compound 462, 3-[8-(3-chloro-benzenesulfonyl)-4-oxo-1,3,8-triaza-spiro[4.5]dec-1-en-2-yl]-piperidine-1-carboxylic acid isobutyl ester] | 47%
Cc1cc(NC[C@H](O)CO)ccc1CCS(=O)(=O)N1CCC2(CC1)N=C(c1ccc(C(F)(F)F)cc1)NC2=O [Compound 154, 8-{2-[4-((S)-2,3-Dihydroxy-propylamino)-2-methyl-phenyl]-ethanesulfonyl}-2-(4-trifluoromethyl-phenyl)-1,3,8-triaza-spiro[4.5]dec-1-en-4-one] | 82%
Cc1cc(C(=O)N2CCC(C)(O)CC2)cc(C)c1/C=C/S(=O)(=O)N1CCC2(CC1)N=C(c1cccc(CC#N)c1)NC2=O [Compound 1187, [3-(8-{(E)-2-[4-(4-hydroxy-4-methyl-piperidine-1-carbonyl)-2,6-dimethyl-phenyl]-ethenesulfonyl}-4-oxo-1,3,8-triaza-spiro[4.5]dec-1-en-2-yl)-phenyl]-acetonitrile] | 75%
Cc1nc(C)c(S(=O)(=O)N2CCC3(CC2)N=C(C2CCCCC2)NC3=O)s1 [Compound 58, 2-cyclohexyl-8-(2,4-dimethyl-thiazole-5-sulfonyl)-1,3,8-triaza-spiro[4.5]dec-1-en-4-one] | 39%
CCCc1cc2ccc(C3=NC4(CCN(S(=O)(=O)CCc5c(C)cc(N(C)C(N)=O)cc5C)CC4)C(=O)N3)cc2o1 [Compound 1355, 1-(3,5-dimethyl-4-{2-[4-oxo-2-(2-propyl-benzofuran-6-yl)-1,3,8-triaza-spiro[4.5]dec-1-ene-8-sulfonyl]-ethyl}-phenyl)-1-methyl-urea] | 118%
